Measured values from ChEMBL document CHEMBL1153288, “1,3,4-Oxadiazole substituted naphthyridines as HIV-1 integrase inhibitors. Part 2: SAR of the C5 position” (Bioorg Med Chem Lett, 2009).

Key:
[1] = Inhibition of recombinant HIV integrase strand transfer activity; design: species or system Human immunodeficiency virus
[2] = Therapeutic index, CC50 for human 293T cells to EC50 for G-pseudotyped HIV; format: cell-based; conditions: read-out: Ratio CC50/EC50
[3] = tested on: Human immunodeficiency virus; experiment: Antiviral activity against G-pseudotyped HIV expressed in 293T cells with pGI3Luci; format: functional, organism-based; conditions: Human immunodeficiency virus 1, HEK-293T

O=C(c1nc(-c2nnc(Cc3ccc(F)cc3)o2)c(O)c2ncccc12)N1CCOCC1
IC50 [1]: 130 nM | selectivity ratio [2]: 134 | EC50 [3]: 97 nM

O=C(O)c1nc(-c2nnc(Cc3ccc(F)cc3)o2)c(O)c2ncccc12
IC50 [1]: 860 nM | selectivity ratio [2]: > 3 | EC50 [3]: 4400 nM

CC(C)NC(=O)c1nc(-c2nnc(Cc3ccc(F)cc3)o2)c(O)c2ncccc12
IC50 [1]: 190 nM | selectivity ratio [2]: 22 | EC50 [3]: 98 nM

O=C(NCCO)c1nc(-c2nnc(Cc3ccc(F)cc3)o2)c(O)c2ncccc12
IC50 [1]: 130 nM | selectivity ratio [2]: > 9 | EC50 [3]: 1490 nM
